Experimental findings from patent US20240083857A1, “2-Methyl-Quinazolines” (Bayer Pharma Aktiengesellschaft, priority 2017, published 2024) are described below.

For assay [1], the target named is human SOS1 (nucleotide exchange of K-Ras^G12C) (Homo sapiens, UniProt Q07889). The experiment in a line: Biochemical assay 2: K-Ras^G12C activation assay by hSOS1 at high GTP concentration (HTRF). The conditions noted are these: high GTP; read-out: Assay 2 (KRAS-Activation by SOS high GTP) activity expressed as IC50. A general note: In TR-FRET formats the signal depends on donor and acceptor labels being close together.

Assay [2] concerns the target Epidermal Growth Factor Receptor (EGFR) (Homo sapiens (Human), UniProt P00533). Briefly: EGFR kinase assay (TR-FRET). The assay is classed as biochemical. The conditions noted are these: values given in μM; read-out: EGFR kinase inhibition IC50. In outline:
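Read-out is the 665/620 nm HTRF ratio, from a Tb-cryptate anti-phosphotyrosine antibody and streptavidin-XL665 bound to phosphorylated biotin-peptide substrate. The enzyme, A431-derived EGFR (~3 U/ml), was given 15 min compound pre-binding at 22° C in Hepes pH 7.0 with Mg2+/Mn2+ before reaction.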

Epidermal Growth Factor Receptor (EGFR), sequence (P00533 25-1210): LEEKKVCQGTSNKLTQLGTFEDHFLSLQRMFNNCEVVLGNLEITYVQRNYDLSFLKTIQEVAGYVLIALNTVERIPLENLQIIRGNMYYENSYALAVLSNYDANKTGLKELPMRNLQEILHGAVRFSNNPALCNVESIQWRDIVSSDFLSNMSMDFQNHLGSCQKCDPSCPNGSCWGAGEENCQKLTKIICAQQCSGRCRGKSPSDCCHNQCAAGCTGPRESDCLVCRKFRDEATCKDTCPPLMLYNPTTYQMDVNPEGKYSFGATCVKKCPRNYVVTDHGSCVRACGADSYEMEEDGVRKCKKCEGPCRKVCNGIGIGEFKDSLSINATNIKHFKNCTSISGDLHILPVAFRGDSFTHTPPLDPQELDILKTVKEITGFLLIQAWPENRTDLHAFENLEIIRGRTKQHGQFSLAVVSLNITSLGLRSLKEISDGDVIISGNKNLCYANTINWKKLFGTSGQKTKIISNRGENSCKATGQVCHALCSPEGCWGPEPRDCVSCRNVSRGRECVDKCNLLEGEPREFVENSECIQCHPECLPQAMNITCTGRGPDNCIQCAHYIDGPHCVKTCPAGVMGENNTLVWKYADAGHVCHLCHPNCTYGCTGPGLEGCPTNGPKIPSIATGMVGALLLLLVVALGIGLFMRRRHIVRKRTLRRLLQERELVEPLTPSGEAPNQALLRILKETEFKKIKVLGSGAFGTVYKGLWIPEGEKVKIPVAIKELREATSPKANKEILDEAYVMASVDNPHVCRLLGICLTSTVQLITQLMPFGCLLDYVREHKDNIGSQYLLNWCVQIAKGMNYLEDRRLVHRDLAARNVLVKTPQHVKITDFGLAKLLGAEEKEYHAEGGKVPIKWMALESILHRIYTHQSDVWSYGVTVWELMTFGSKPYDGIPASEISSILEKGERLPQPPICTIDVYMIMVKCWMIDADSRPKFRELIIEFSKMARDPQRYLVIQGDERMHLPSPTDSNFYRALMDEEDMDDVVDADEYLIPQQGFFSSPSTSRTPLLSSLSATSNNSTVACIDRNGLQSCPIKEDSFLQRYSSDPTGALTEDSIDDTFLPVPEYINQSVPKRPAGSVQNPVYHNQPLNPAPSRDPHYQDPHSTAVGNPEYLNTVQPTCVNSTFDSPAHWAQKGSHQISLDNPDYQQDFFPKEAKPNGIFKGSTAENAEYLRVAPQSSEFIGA

As a reminder, the IC50 is the concentration that inhibits the measured activity by half. Consider `Cc1nc(N[C@H](C)c2cccc(Cl)c2)c2cc(Br)ccc2n1` [Example 363, 6-bromo-N-[(1R)-1-(3-chlorophenyl)ethyl]-2-methylquinazolin-4-amine], for which the IC50 in assay [1] is 11300 nM; in assay [2] it was greater than 20 µM.
The like results for `COc1cc2nc(C)nc(NC(C)c3ccc(-c4ccccc4CNC4CCCC4)s3)c2cc1OC` (stereo not shown) [Example 364, N-[1-(5-{2-[(cyclopentylamino)methyl]phenyl}thiophen-2-yl)ethyl]-6,7-dimethoxy-2-methylquinazolin-4-amine] were, in that order, 158 nM and greater than 20 µM.
Taken in the same sequence, the figures for `COc1cc2nc(C)nc(NC(C)c3ccc(-c4ccccc4CNCc4ccccc4)s3)c2cc1OC` (stereo not shown) [Example 365, N-[1-(5-{2-[(benzylamino)methyl]phenyl}thiophen-2-yl)ethyl]-6,7-dimethoxy-2-methylquinazolin-4-amine] were 299 nM and greater than 20 µM.
The like results for `CCCCNCc1ccccc1-c1ccc(C(C)Nc2nc(C)nc3cc(OC)c(OC)cc23)s1` (stereo not shown) [Example 366, N-[1-(5-{2-[(butylamino)methyl]phenyl}thiophen-2-yl)ethyl]-6,7-dimethoxy-2-methylquinazolin-4-amine] were, in that order, 96.9 nM and greater than 20 µM.
Turning to `CCNCc1ccccc1-c1ccc(C(C)Nc2nc(C)nc3cc(OC)c(OC)cc23)s1` (stereo not shown) [Example 367, N-[1-(5-{2-[(ethylamino)methyl]phenyl}thiophen-2-yl)ethyl]-6,7-dimethoxy-2-methylquinazolin-4-amine], the values for the IC50 in assay [1] and in assay [2] were 61.3 nM and greater than 20 µM, respectively.
